In ChEMBL document CHEMBL1125551, “Conformationally restricted analogues of disoxaril: a comparison of the activity against human rhinovirus types 14 and 1A” (1992):
Values after ≈ are worked out from the molar mass of the structure shown.

Columns and labels:
[1] = system: rhinovirus B14; experiment: In vitro determined against HRV-14 in a plaque reduction assay; assay type: functional, human rhinovirus type 14; settings: Rhinovirus B
[2] = system: Human rhinovirus 1A; experiment: In vitro determined against HRV-1A in a plaque reduction assay; assay type: functional

MIC [1] | MIC [2] | Structure (SMILES)
3.9 µM (≈ 1.49 µg/mL) | 4.72 µM (≈ 1.8 µg/mL) | Cc1cc(CC/C=C\COc2c(Cl)cc(C3=NCCO3)cc2Cl)on1
0.26 µM (≈ 0.0986 µg/mL) | > 8.2 µM | Cc1cc(CCC#CCOc2c(Cl)cc(C3=NCCO3)cc2Cl)on1
1.2 µM (≈ 0.46 µg/mL) | 2.5 µM (≈ 0.958 µg/mL) | Cc1cc(CCCCCOc2c(Cl)cc(C3=NCCO3)cc2Cl)on1 [WIN-54954]
0.44 µM (≈ 0.168 µg/mL) | 2.25 µM (≈ 0.858 µg/mL) | Cc1cc(CC/C=C/COc2c(Cl)cc(C3=NCCO3)cc2Cl)on1
8.14 µM (≈ 2.89 µg/mL) | 0.46 µM (≈ 0.163 µg/mL) | Cc1cc(CCCOc2c(Cl)cc(C3=NCCO3)cc2Cl)on1
